{"source": "PubChem BioAssay AID1645864", "about": "(Buhrlage Lab, Dana-Farber Cancer Institute and Novartis …, 2021)", "note": "Activity calls are given as the source filed them.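 How the source made its calls: active means maximal inhibition of USP17 at or above 30% in the confirmation dose-response, a value not among the printed readouts; inactive means the rest.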", "data": [{"target": "Ubiquitin carboxyl-terminal hydrolase 17-like protein 5 (Homo sapiens) (UniProt A8MUK1)", "sequence (A8MUK1 whole entry, looked up)": "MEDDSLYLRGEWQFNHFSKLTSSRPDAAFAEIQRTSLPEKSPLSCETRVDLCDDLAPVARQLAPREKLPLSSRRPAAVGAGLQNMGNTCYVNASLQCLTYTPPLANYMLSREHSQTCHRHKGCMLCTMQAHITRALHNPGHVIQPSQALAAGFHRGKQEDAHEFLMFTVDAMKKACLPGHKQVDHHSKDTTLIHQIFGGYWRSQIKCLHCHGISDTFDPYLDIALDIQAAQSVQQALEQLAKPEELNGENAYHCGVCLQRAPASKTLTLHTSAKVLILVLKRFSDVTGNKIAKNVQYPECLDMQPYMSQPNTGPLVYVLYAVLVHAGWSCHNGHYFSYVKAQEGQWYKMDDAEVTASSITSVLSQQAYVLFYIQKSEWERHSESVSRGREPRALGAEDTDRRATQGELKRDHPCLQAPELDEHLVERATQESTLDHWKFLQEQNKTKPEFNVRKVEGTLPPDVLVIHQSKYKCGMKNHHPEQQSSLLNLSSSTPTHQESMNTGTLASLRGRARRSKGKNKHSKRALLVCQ", "test": "ubiquitin-specific protease 17 DUB inhibitors, concentration-effect assay, cell-free, verification of initial screening actives (AID 1645864)", "conditions": "purified USP17, ubiquitin-rhodamine cleavage fluorescence, 3 h", "values": [{"compound": "O=C(CCCn1c(=O)[nH]c2cc(Cl)ccc2c1=O)N1CCc2ccccc2C1", "IC50": "21.5 µM"}, {"compound": "Cc1cccc(NC(=O)CSc2nnc(-c3n[nH]c4c3CCC4)n2N)c1", "IC50": "35.1 µM"}, {"compound": "Fc1cnc(N2CC[C@H]3CO[C@H](CNc4ncccn4)[C@H]3C2)nc1", "IC50": "> 50 µM (inactive)"}, {"compound": "Cc1sc2ncnc(OCc3ccc(F)cc3Cl)c2c1C", "IC50": "> 50 µM (inactive)"}, {"compound": "CC1CCN(S(=O)(=O)c2ccc3[nH]cc(C(=O)NCc4ccco4)c(=O)c3c2)CC1", "IC50": "> 50 µM (inactive)"}, {"compound": "Cc1nc(-c2ccc(NC(=O)N3CCN(c4ccccn4)CC3)cc2)no1", "IC50": "> 50 µM (inactive)"}, {"compound": "Cc1cc(-c2ccnc3c(C#N)cnn23)c(C)s1", "IC50": "28.6 µM"}, {"compound": "Cc1ccc(-c2noc(-c3nnc(SCC(=O)NC4CCCC4)n3C)n2)cc1", "IC50": "2.34 µM"}, {"compound": "Cc1nc(Nc2ncc(C)s2)cc(C2CN(C(=O)Cc3ccccc3)CCO2)n1", "note": "(configuration not stated)", "IC50": "> 50 µM (inactive)"}, {"compound": "COc1ccc(N(CC(=O)NC2CCCCC2)C(=O)c2ccc(-c3ccccc3)[nH]2)cc1OC", "IC50": "3.04 µM"}, {"compound": "C/C1=C/CC(O)/C=C/C(C)C(O)C(C)/C=C(\\C)C(=O)c2c(O)c(C)cc3c2C(=O)C(Cl)=C(NC(=O)\\C=C/C=C/C=C\\C(C)C(O)CC1=O)C3=O", "note": "(configuration not stated)", "IC50": "20.2 µM"}, {"compound": "CCC(=O)Nc1cccnc1-c1ccc(C(=O)Nc2cccc(OC)c2)cc1", "IC50": "> 50 µM (inactive)"}, {"compound": "Cc1cccc(NC(=O)Cn2c(=O)n(Cc3ccc(F)cc3)c(=O)c3sccc32)c1", "IC50": "5.8 µM"}, {"compound": "COc1ccccc1Nc1ncc(C(=O)NCCc2ccc(Cl)cc2)c2ccccc12", "IC50": "4.16 µM"}, {"compound": "CC(C)(C)c1cc(CCC(=O)Nc2c3c(nc4c2CCC4)CCCC3)cc(C(C)(C)C)c1O", "IC50": "> 50 µM (inactive)"}, {"compound": "N#Cc1c(-c2ccccc2)ccn(Cc2cccc(C(F)(F)F)c2)c1=O", "IC50": "33.8 µM"}, {"compound": "Cc1sc2ncn3c(=O)n(CC(=O)Nc4ccc(F)c(Cl)c4)nc3c2c1C", "IC50": "2.82 µM"}, {"compound": "O=C(NCc1ccccc1)c1ccc(-c2ccc(N3CCCC3)nn2)cc1", "IC50": "> 50 µM (inactive)"}, {"compound": "N#C/C(=C\\c1ccc(-c2cc(Cl)ccc2Cl)o1)c1nnc2n1CCCCC2", "IC50": "> 50 µM (inactive)"}, {"compound": "COc1ccc(NC(=O)Cn2c(CS(=O)(=O)c3ccc(C)cc3)nc3ccccc32)cc1", "IC50": "6.52 µM"}, {"compound": "COc1ccc(CNC(=O)C(C)n2nc(-c3ccco3)c(-c3cc(C)no3)cc2=O)cc1", "note": "(configuration not stated)", "IC50": "25.1 µM"}, {"compound": "O=C(Cn1c(-c2ccccc2)ncc(C(=O)NC2CC2)c1=O)Nc1ccccc1", "IC50": "12.1 µM"}, {"compound": "CN1CCN(c2ccc3nc(-c4ccccc4)c(-c4ccccc4)nc3c2)CC1", "IC50": "> 50 µM (inactive)"}, {"compound": "CCn1c(Cn2cccn2)nc2cc(NC(=O)c3ccc(F)cc3)ccc21", "IC50": "> 50 µM (inactive)"}, {"compound": "CC1=CC(=O)C(C2=C(O)C(=O)C(C)=CC2=O)=C(O)C1=O", "IC50": "3.55 µM"}, {"compound": "COc1cc(NC(=O)c2cc(CN3CCOCC3)on2)cc(OC)c1", "IC50": "> 50 µM (inactive)"}, {"compound": "O=C(c1ccc(Cl)cc1)c1c[nH]cc1-c1c(F)cccc1Cl", "IC50": "36.3 µM"}, {"compound": "COCCCNC(=O)c1ccc(Cn2c(=O)c3ccccc3n(CC(=O)Nc3ccc(OC)cc3)c2=O)cc1", "IC50": "29.7 µM"}, {"compound": "COc1ccc(C2/C(=C(\\O)c3ccccc3)C(=O)C(=O)N2c2nc3ccc(F)cc3s2)cc1", "note": "(configuration not stated)", "IC50": "17.9 µM"}, {"compound": "Cc1ccc(NC(=O)c2nnn(-c3ccccc3)n2)cc1F", "IC50": "> 50 µM (inactive)"}, {"compound": "Cc1ccc2c(c1)c(=O)c(C(=O)c1ccccc1)cn2CC(=O)Nc1ccc2c(c1)OCCO2", "IC50": "3.16 µM"}, {"compound": "Fc1cccc(-n2cc(-c3noc(-c4ccc[nH]4)n3)nn2)c1", "IC50": "36.4 µM"}, {"compound": "O=C(NC1CCCC1)c1cccc(-c2ccc(N3CCCC3)nc2)c1", "IC50": "4.53 µM"}, {"compound": "CC(C)NS(=O)(=O)c1ccc(OCC(=O)N2CCC(Cc3ccccc3)CC2)cc1", "IC50": "> 50 µM (inactive)"}, {"compound": "CC[C@H](C)C[C@H]1CC[C@](O)([C@](C)(O)C(=O)N[C@@H]2C(=O)N3NCCC[C@@H]3C(=O)N(O)[C@@H](C)C(=O)NCC(=O)N3NCCC[C@H]3C(=O)N(O)[C@H](C)C(=O)O[C@H]2C(C)C)O[C@@H]1C", "IC50": "13.6 µM"}, {"compound": "CCn1ccc2c(cc(C(=O)Nc3cccc(OC)c3)n2C)c1=O", "IC50": "> 50 µM (inactive)"}, {"compound": "O=S(=O)(c1ccc2c(c1)OCCO2)N(Cc1ccccc1)Cc1nnc(-c2ccccc2)o1", "IC50": "> 50 µM (inactive)"}]}]}
